Experimental data reported in patent US8445207B2, “Genes based on thalidomide, valproic acid and methotrexate treatment for screening of drug inducing teratogenicity and screening method using thereof” (priority 2009, dated 2013).

Test system: JEG-3 (human placental choriocarcinoma cell line)
Test: Real-time RT-PCR quantification of gene expression in drug-treated JEG-3
Format: cell-based
Conditions: for Real time PCR (Relative ratio), KIAA0310: GenBank AB002308; for Real time PCR (Relative ratio), ATP10B: GenBank AB018258; for Real time PCR (Relative ratio), TTF2: GenBank AB209845; for Real time PCR (Relative ratio), TncRNA: GenBank AF001893; for Real time PCR (Relative ratio), C4orf19: GenBank AK001879; for Real time PCR (Relative ratio), CYP19A1: GenBank AK023571; for Real time PCR (Relative ratio), SLC40A1: GenBank AK023574; for Real time PCR (Relative ratio), ABTB2: GenBank AK095632; for Real time PCR (Relative ratio), TUBB3: GenBank AK122757; for Real time PCR (Relative ratio), MGC27016: GenBank AK125877; for Real time PCR (Relative ratio), GLCCI1: GenBank AK126731; for Real time PCR (Relative ratio), TFCP2L4: GenBank BC036890; for Real time PCR (Relative ratio), RGS2: GenBank BC042755; for Real time PCR (Relative ratio), SIAT7A: GenBank BC063830; for Real time PCR (Relative ratio), B7-H4: GenBank BX648021; for Real time PCR (Relative ratio), COBLL1: GenBank BX649112; for Real time PCR (Relative ratio), CGA: GenBank NM_000735; for Real time PCR (Relative ratio), PARP1: GenBank NM_001618; for Real time PCR (Relative ratio), SERPINB9: GenBank NM_004155; for Real time PCR (Relative ratio), ST8SIA4: GenBank NM_005668; for Real time PCR (Relative ratio), ABL1: GenBank NM_007313; for Real time PCR (Relative ratio), GRLF1: GenBank NM_024342; for Real time PCR (Relative ratio), LGP1: GenBank NM_032484; for Real time PCR (Relative ratio), NCOA3: GenBank NM_181659; for Real time PCR (Relative ratio), SR140: GenBank XM_031553; for Real time PCR (Relative ratio), SLC7A8: GenBank Y18483
Protocol: My IQ Real-Time PCR (Bio-Rad, USA) was performed to quantify the expressions of those genes.
Particularly, cDNA was synthesized using oligo dT primer and Superscript kit (Omniscipt™ kit, Qiagen, Co., USA) by reverse transcription. 0.2 μl of the cDNA, 3.8 μl of water, 0.5 μg of a sense primer, 0.5 μg of an antisense primer, and […] of SYBR Green I supermix (Bio-Rad, USA) were mixed, which was placed in a PCR tube, followed by real-time RT-PCR in My IQ real-time PCR machine as follows: Step 1: 95°, 3 minutes; Step 2 (45 cycles): Step 2-1: 95°, 10 seconds; Step 2-2: 55-65° 45 seconds; Step 3: 95°, 1 minute; Step 4: 55°, 1 minute; Step 5 (80 cycles): 55°, 10 seconds. SYBR green I (Bio-Rad, USA) staining was performed to quantify the PCR product. SYBR I staining is the staining method using double stranded DNA binding. So, the more double stranded DNA is generated during PCR, the stronger the fluorescence intensity becomes. First, target gene and endogenous control (GAPDH) primers were added to SYBR green master mix, followed by PCR. Then, primer optimization was performed to determine a proper concentration. Synthesized cDNA and each primer were mixed (Table 4), to which SYBR master mix was added, followed by PCR.

SMILES | Real time PCR (Relative ratio), KIAA0310 | Real time PCR (Relative ratio), ATP10B | Real time PCR (Relative ratio), TTF2 | Real time PCR (Relative ratio), TncRNA | Real time PCR (Relative ratio), C4orf19 | Real time PCR (Relative ratio), CYP19A1 | Real time PCR (Relative ratio), SLC40A1 | Real time PCR (Relative ratio), ABTB2 | Real time PCR (Relative ratio), TUBB3 | Real time PCR (Relative ratio), MGC27016 | Real time PCR (Relative ratio), GLCCI1 | Real time PCR (Relative ratio), TFCP2L4 | Real time PCR (Relative ratio), RGS2 | Real time PCR (Relative ratio), SIAT7A | Real time PCR (Relative ratio), B7-H4 | Real time PCR (Relative ratio), COBLL1 | Real time PCR (Relative ratio), CGA | Real time PCR (Relative ratio), PARP1 | Real time PCR (Relative ratio), SERPINB9 | Real time PCR (Relative ratio), ST8SIA4 | other results
CN(Cc1cnc2nc(N)nc(N)c2n1)c1ccc(C(=O)N[C@@H](CCC(=O)O)C(=O)O)cc1 [MTX, methotrexate] | 3.9217 | 2.6467 | 1.9659 | 2.2297 | 36.2463 | 1.7007 | 6.0098 | 0.1356 | 4.7892 | 2.3343 | 2.5941 | 0.7146 | 5.6716 | 8.3865 | 0.4198 | 1.4978 | 0.0829 | 0.2381 | 1.5208 | 0.955 | Real time PCR (Relative ratio), ABL1: 0.5159; Real time PCR (Relative ratio), GRLF1: 0.7048; Real time PCR (Relative ratio), LGP1: 0.6468; Real time PCR (Relative ratio), NCOA3: 2.4457; Real time PCR (Relative ratio), SR140: 0.1357; Real time PCR (Relative ratio), SLC7A8: 2.8779
CCCC(CCC)C(=O)O [VPA, valproic acid] | 5.7397 | 2.7083 | 1.6637 | 1.8204 | 2.9592 | 2.15 | 1.9425 | 4.0469 | 1.9015 | 2.3155 | 1.6023 | 2.292 | 2.8779 | 4.5249 | 0.0755 | 12.2271 | 2.6497 | 0.7443 | 7.1977 | 3.7161 | Real time PCR (Relative ratio), ABL1: 0.8681; Real time PCR (Relative ratio), GRLF1: 0.8281; Real time PCR (Relative ratio), LGP1: 0.4982; Real time PCR (Relative ratio), NCOA3: 2.1913; Real time PCR (Relative ratio), SR140: 0.3565; Real time PCR (Relative ratio), SLC7A8: 6.3157
